# Patent US10654837B2, “Sulphamoylaryl derivatives and use thereof as medicaments for the treatment of liver fibrosis” (Janssen Pharmaceutica NV, priority 2017, dated 2020)
# Target: T1, 5HTR2B (Homo sapiens, UniProt P41595)
# T1 construct: host or cells: human Maverick/293 cells
# Test: 5HTR2B antagonist activity, calcium mobilization assay in human Maverick/293 cells (serotonin as agonist)
# Assay type: cell-based
# Conditions: intracellular calcium, emission 525 nm, read-out: Ca assay IC50
# Experimental: The 5HTR2B antagonist activity was measured using human Maverick/293 cells in a calcium mobilization assay. The measurement starting with plating human Maverick/293 cells (log phase) onto 96-well black and incubate at 37° C. overnight, Followed by starving cells for 2 h by changing complete medium to DMEM without FBS, removing the medium from the 96-well plate. Loading staining calcium buffer into each well and incubated the plate at 37° C. for 50 min. After removal of staining calcium buffer, diluted antagonist were added into the well, incubate 15 to 30 minutes. Dispense serotonin as the 5HTR2B agonists into each well. Intracellular calcium concentration is recorded for 80 seconds by monitoring an emission at a wavelength of 525 nm with an excitation wavelength of 485 nm. Inhibition efficiency of the cell line was determined following the equation: % Inhibition=100%−(D−B)/(S−B)*100%. (S: The peak value in the presence of agonist serotonin; D: The peak value in the presence of different dilution compound or serotonin; B: The peak value in the presence of calcium HBSS buffer only). […] A dose response curve was fitted using nonlinear regression model with a sigmoidal dose response. The IC50 was automatically produced by GraphPad Prism 5.0.
# T1 sequence (P41595 whole entry): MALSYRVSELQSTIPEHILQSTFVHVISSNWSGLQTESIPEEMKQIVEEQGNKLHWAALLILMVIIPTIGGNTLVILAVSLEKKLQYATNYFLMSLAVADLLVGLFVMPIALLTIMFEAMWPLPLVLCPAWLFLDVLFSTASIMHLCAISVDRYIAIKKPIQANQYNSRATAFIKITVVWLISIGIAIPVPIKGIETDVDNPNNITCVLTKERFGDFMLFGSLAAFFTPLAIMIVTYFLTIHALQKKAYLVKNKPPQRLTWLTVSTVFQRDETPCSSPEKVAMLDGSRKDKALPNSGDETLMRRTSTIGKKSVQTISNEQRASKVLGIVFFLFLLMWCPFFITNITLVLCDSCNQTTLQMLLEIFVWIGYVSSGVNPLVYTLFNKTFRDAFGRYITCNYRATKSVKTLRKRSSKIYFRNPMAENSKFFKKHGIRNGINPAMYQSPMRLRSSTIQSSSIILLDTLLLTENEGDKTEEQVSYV
row,Compound,IC50
1,"COc1ccc(S(=O)(=O)NC2(C)COC2)cc1C(=O)Nc1ccc(F)c(C(F)F)c1 [Compound 36, N-(3-(Difluoromethyl)-4-fluorophenyl)-2-methoxy-5-(N-(3-methyloxetan-3-yl)sulfamoyl)benzamide]",2.7 nM
2,"COc1ccc(S(=O)(=O)N[C@H]2CCCOC2)cc1C(=O)Nc1ccc(F)c(C(F)F)c1 [Compound 37, (S)—N-(3-(Difluoromethyl)-4-fluorophenyl)-2-methoxy-5-(N-(tetrahydro-2H-pyran-3-yl)sulfamoyl)benzamide]",0.8 nM
3,"COc1ccc(S(=O)(=O)N[C@H]2CC[C@@H](O)CC2)cc1C(=O)Nc1ccc(F)c(C(F)F)c1 [Compound 38, N-(3-(Difluoromethyl)-4-fluorophenyl)-5-(N-((cis)-4-hydroxycyclohexyl)sulfamoyl)-2-methoxybenzamide]",0.6 nM
4,"COc1ccc(S(=O)(=O)NC2COC2)cc1C(=O)Nc1ccc(F)c(C(F)F)c1 [Compound 39, N-(3-(Difluoromethyl)-4-fluorophenyl)-2-methoxy-5-(N-(oxetan-3-yl)sulfamoyl)benzamide]",3.6 nM
5,"COc1ccc(S(=O)(=O)N[C@H]2CCCOC2)cc1C(=O)Nc1ccc(F)cc1 [Compound 41, (S)—N-(4-Fluorophenyl)-2-methoxy-5-(N-(tetrahydro-2H-pyran-3-yl)sulfamoyl) benzamide]",0.7 nM
6,"COc1ccc(S(=O)(=O)NC2(C)COC2)cc1C(=O)Nc1ccc(F)cc1 [Compound 42, N-(4-Fluorophenyl)-2-methoxy-5-(N-(3-methyloxetan-3-yl)sulfamoyl)benzamide]",2.2 nM
7,"COc1ccc(S(=O)(=O)NC2COC2)cc1C(=O)Nc1ccc(F)cc1 [Compound 43, N-(4-Fluorophenyl)-2-methoxy-5-(N-(oxetan-3-yl)sulfamoyl)benzamide]",7.2 nM
8,COc1ccc(S(=O)(=O)NC2CC[C@H](O)C2)cc1C(=O)Nc1ccc(F)cc1 (stereo partly shown) [Compound 45b],1.9 nM
9,"COc1ccc(S(=O)(=O)N[C@H](C)C(N)=O)cc1C(=O)Nc1ccc(F)cc1 [Compound 46a, (R)-5-(N-(1-Amino-1-oxopropan-2-yl)sulfamoyl)-N-(4-fluorophenyl)-2-methoxybenzamide]",1.5 nM
10,"COc1ccc(S(=O)(=O)N[C@@H](C)C(N)=O)cc1C(=O)Nc1ccc(F)cc1 [Compound 46b, (S)-5-(N-(1-Amino-1-oxopropan-2-yl)sulfamoyl)-N-(4-fluorophenyl)-2-methoxybenzamide]",1.8 nM
11,"COc1ccc(S(=O)(=O)NC2CCC2)cc1C(=O)Nc1ccc(F)cc1 [Compound 47, 5-(N-Cyclobutylsulfamoyl)-N-(4-fluorophenyl)-2-methoxybenzamide]",0.5 nM
12,"COc1ccc(S(=O)(=O)NC2CC2)cc1C(=O)Nc1ccc(F)cc1 [Compound 48, 5-(N-Cyclopropylsulfamoyl)-N-(4-fluorophenyl)-2-methoxybenzamide]",2.7 nM
13,"COc1ccc(S(=O)(=O)N[C@@H](C)CO)cc1C(=O)Nc1ccc(F)cc1 [Compound 49a, (S)—N-(4-Fluorophenyl)-5-(N-(1-hydroxypropan-2-yl)sulfamoyl)-2-methoxybenzamide]",3.4 nM
14,"COc1ccc(S(=O)(=O)N[C@H](C)CO)cc1C(=O)Nc1ccc(F)cc1 [Compound 49b, (R)—N-(4-Fluorophenyl)-5-(N-(1-hydroxypropan-2-yl)sulfamoyl)-2-methoxybenzamide]",9 nM
15,"COc1ccc(S(=O)(=O)NC2(C(F)(F)F)CC2)cc1C(=O)Nc1ccc(F)cc1 [Compound 50, N-(4-Fluorophenyl)-2-methoxy-5-(N-(1-(trifluoromethyl)cyclopropyl)sulfamoyl)benzamide]",7.6 nM
16,"COc1ccc(S(=O)(=O)NC2CCCC2)cc1C(=O)Nc1ccc(F)cc1 [Compound 51, 5-(N-Cyclopentylsulfamoyl)-N-(4-fluorophenyl)-2-methoxybenzamide]",1 nM

row,Compound,IC50
1,"COc1ccc(S(=O)(=O)N[C@@H](C)CO)cc1C(=O)Nc1ccc(F)cc1 [Compound 52a, (S)—N-(4-fluorophenyl)-5-(N-(1-hydroxypropan-2-yl)sulfamoyl)-2-methoxybenzamide]",50 nM
2,"COc1ccc(S(=O)(=O)N[C@H](C)CO)cc1C(=O)Nc1ccc(F)cc1 [Compound 52b, (R)—N-(4-fluorophenyl)-5-(N-(1-hydroxypropan-2-yl)sulfamoyl)-2-methoxybenzamide]",4.5 nM
3,"COc1ccc(S(=O)(=O)N[C@H]2CC[C@@H](O)CC2)cc1C(=O)Nc1ccc(F)cc1 [Compound 53, N-(4-Fluorophenyl)-5-(N-((cis)-4-hydroxycyclohexyl)sulfamoyl)-2-methoxybenzamide]",0.3 nM
4,"COc1ccc(S(=O)(=O)N[C@@H](C)CO)cc1C(=O)Nc1ccccc1Cl [Compound 55a, (S)—N-(2-Chlorophenyl)-5-(N-(1-hydroxypropan-2-yl)sulfamoyl)-2-methoxy benzamide]",0.3 nM
5,"COc1ccc(S(=O)(=O)N[C@H](C)CO)cc1C(=O)Nc1ccccc1Cl [Compound 55b, (R)—N-(2-Chlorophenyl)-5-(N-(1-hydroxypropan-2-yl)sulfamoyl)-2-methoxy benzamide]",0.1 nM
6,COc1ccc(S(=O)(=O)NC2CC[C@H](O)C2)cc1C(=O)Nc1ccccc1Cl (stereo partly shown) [Compound 57a],0.2 nM
7,"COc1ccc(S(=O)(=O)NC2CC[C@@H](O)C2)cc1C(=O)Nc1ccccc1Cl (stereo partly drawn) [Compound 57b, N-(2-Chlorophenyl)-5-(N-((cis)-3-hydroxycyclopentyl)sulfamoyl)-2-methoxy benzamide]",0.2 nM
8,"COc1ccc(S(=O)(=O)NC2(C)COC2)cc1C(=O)Nc1ccccc1Cl [Compound 58, N-(2-Chlorophenyl)-2-methoxy-5-(N-(3-methyloxetan-3-yl)sulfamoyl) benzamide]",0.2 nM
9,COc1ccc(S(=O)(=O)N[C@@H](C)C(N)=O)cc1C(=O)Nc1ccccc1Cl [Compound 59a],0.2 nM
10,"COc1ccc(S(=O)(=O)N[C@H]2CCC[C@H]2O)cc1C(=O)Nc1ccccc1Cl [Compound 61a, N-(2-Chlorophenyl)-5-(N-((1s,2r)-2-hydroxycyclopentyl)sulfamoyl)-2-methoxy benzamide]",0.1 nM
11,"COc1ccc(S(=O)(=O)NC2CCC[C@@H]2O)cc1C(=O)Nc1ccccc1Cl (stereo partly drawn) [Compound 61b, N-(2-Chlorophenyl)-5-(N-((trans)-2-hydroxycyclopentyl)sulfamoyl)-2-methoxy benzamide]",0.2 nM
12,"COc1ccc(S(=O)(=O)NC2CCC[C@H]2O)cc1C(=O)Nc1ccccc1Cl (stereo partly drawn) [Compound 61c, N-(2-chlorophenyl)-5-(N-((trans)-2-hydroxycyclopentyl)sulfamoyl)-2-methoxy benzamide]",0.2 nM
13,"COc1ccc(S(=O)(=O)NC2COC2)cc1C(=O)Nc1ccccc1Cl [Compound 62, N-(2-Chlorophenyl)-2-methoxy-5-(N-(oxetan-3-yl)sulfamoyl)benzamide]",0.1 nM
14,"COc1ccc(S(=O)(=O)NC2CCC2)cc1C(=O)Nc1ccc(F)c(C)c1 [Compound 63, 5-(N-Cyclobutylsulfamoyl)-N-(4-fluoro-3-methylphenyl)-2-methoxybenzamide]",1.3 nM
15,"COc1ccc(S(=O)(=O)N[C@H]2CCOC2)cc1C(=O)Nc1nccs1 [Compound 64, (S)-2-Methoxy-5-(N-(tetrahydrofuran-3-yl)sulfamoyl)-N-(thiazol-2-yl) benzamide]",65 nM
